Reference: US6071747A, “Immortalized cell lines from human adipose tissue, process for preparing same and applications thereof” (Centre National de la Recherche Scientifique-CNRS, priority 1995, dated 2000)
Like-named read-outs stand apart in the source and are kept apart here.

How the values were obtained:
[1] = tested on: β-adrenergic receptors coupled with adenylyl cyclase in PAZ-6 cells; conditions: for Accumulation of cAMP, pmol cAMP/mg protein: agonist 15 min at 37° C.
Experimental: (§1) The following method is used to determine the intracellular levels of cAMP:
(§2) The incubation buffer is removed and the cells are lyzed in 1 M NaOH for at least 20 min at 37° C. The lyzate is neutralized with 1 M acetic acid and centrifuged in a microcentrifuge at maximum speed for 5 min.
(§3) The supernatant is used to determine the cAMP (cAMP-^3 H kit, Amersham).

[2] = target: β-adrenergic receptors coupled with adenylyl cyclase in PAZ-6 cells (Homo sapiens, UniProt P13945); conditions: differentiated PAZ-6; 15 min
Experimental: as §1, §2, §3

[3] = tested on: differentiated PAZ-6 human adipocytes; assay: Lipolysis assay (glycerol release) on the PAZ-6 line; type: cell-based; conditions: differentiated PAZ-6 adipocytes; 2 hours at 37° C.; forskolin 10^-4 M, other agonists 10^-5 M; catecholamines with or without phentolamine 20 μg/ml
Experimental: The lipolysis test consists in measuring the amount of glycerol generated by the mature adipocytes treated with lipolytic ligands.
Monolayers of (differentiated) mature adipocytes in culture plates (6 wells) are washed and preincubated overnight in DMEM/Ham's F12 (1:1, v/v) comprising 1% of fatty acid-free BSA. The cells are then incubated in a Krebs-Ringer phosphate buffer (pH 7.4) comprising 2% of fatty acid-free BSA, 4.5 g/l of glucose, 50 μg/ml of Na2 S2 O5 and the β-adrenergic ligands, in a volume of 500 μl, for 2 hours at 37° C.
The glycerol level is measured on 100 μl of incubation medium by following the reduction of NAD to NADH at 340 nm in the presence of 10 μg/ml of glycerol dehydrogenase (derived from Enterobacter aerogenes, Boehringer Mannheim) in the following reaction buffer: K2 CO3 /NaHCO3 125 mM pH 10, NAD 3.5 mM and (NH4)2 SO4 330 mM.

[4] = tested on: mRNA coding for the Ob protein; conditions: rat adipocytes; cited from earlier work
[5] = tested on: β-adrenergic receptors (I-CYP binding sites) of PAZ-6 cells
Experimental: * determination of the binding sites for the β antagonist ligand iodocyanopindolol (I-CYP) in the PAZ-6 cell line
The cells are washed with PBS, incubated for 5 minutes at 37° C. with a solution of trypsin/2% EDTA and resuspended in DMEM supplemented with 10% (v/v) of horse serum.
After centrifugation at 450×g for 5 minutes at 4° C., the cellular residue is washed twice with PBS and the cells are then resuspended in PBS.
The actual binding assay itself is carried out for 90 min at 25° C. in a final volume of […] of PBS supplemented with 50 mg/ml of bovine serum albumin and 1 mM desipramine.
The reaction is stopped by rapid filtration through a Whatman GF/C glass fibre filter previously immersed for 30 min in a solution of PBS containing 0.3% of polyethyleneimine (to reduce the non-specific bindings).
The protein concentrations are determined by the method of M. Bradford (Anal. Biochem., 1976, 72, 248-256).
Bovine serum albumin is used as the standard and the cellular suspensions are homogenized with a Polytron homogenizer for a maximum of 5 seconds before the reaction.

PAZ-6 preadipocytes = assay: Differentiation of PAZ-6 preadipocytes into mature adipocytes; type: cell-based, human; conditions: in the presence of insulin and dexamethasone; 1 μM pioglitazone
Experimental: The cells are inoculated at a density of 10,000 cells/cm^2 and cultivated for 3 days in a medium containing 6% of foetal calf serum in order to obtain confluence; an ITT medium (DMEM/HAM F12 medium supplemented with biotin, pantothenate, Hepes, T3, penicillin and streptomycin, as defined above) is then added to said cells, said medium also containing 0.1 μM dexamethasone, 850 nM insulin, 1 μM pioglitazone and 0.25 mM IBMX (3-isobutyl-1-methylxanthine) for 4 days.

Ob mice = Ob mice with mutant gene; injected; cited from earlier work

Sequence of β-adrenergic receptors coupled with adenylyl cyclase in PAZ-6 cells (Homo sapiens, UniProt P13945) (P13945 whole entry): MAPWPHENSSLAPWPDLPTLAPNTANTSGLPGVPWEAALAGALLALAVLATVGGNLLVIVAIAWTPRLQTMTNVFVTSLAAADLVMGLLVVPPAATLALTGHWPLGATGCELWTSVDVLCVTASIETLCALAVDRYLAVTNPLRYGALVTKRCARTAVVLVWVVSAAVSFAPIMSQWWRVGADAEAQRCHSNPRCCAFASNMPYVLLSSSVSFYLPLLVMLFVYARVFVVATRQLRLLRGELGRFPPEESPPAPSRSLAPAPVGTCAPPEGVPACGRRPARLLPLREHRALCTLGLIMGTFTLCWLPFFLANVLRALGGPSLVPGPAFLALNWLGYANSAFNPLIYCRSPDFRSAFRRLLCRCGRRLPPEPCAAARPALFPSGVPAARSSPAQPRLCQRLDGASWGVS

CC(C)(C)NCC(O)COc1cccc2[nH]c(=O)[nH]c12 (stereo not shown) [CGP 12177A]
Accumulation of cAMP, pmol cAMP/mg protein ([1]; PAZ-6 differentiated): 323 ± 129 pmol cAMP/mg protein
Accumulation of cAMP, pmol cAMP/mg protein ([1]; PAZ-6 not differentiated): 254 ± 167 pmol cAMP/mg protein
stimulation of the adenylyl cyclase ([1]; undifferentiated PAZ-6): does not cause any significant stimulation
stimulation (cAMP) compared with isoproterenol activating all β-AR sites [2]: 20%
lipolysis (glycerol generated relative to basal level, FIG. 4) [3]: Lipolysis is also seen to be induced

C[C@H](Cc1ccc2c(c1)OC(C(=O)O)(C(=O)O)O2)NC[C@H](O)c1cccc(Cl)c1 [CL 316,43]
lipolysis (glycerol generated relative to basal level, FIG. 4) [3]: Lipolysis is also seen to be induced
levels of mRNA coding for the Ob protein [4]: reduce substantially

Cc1ccc(OCC(O)C(C)NC(C)C)c2c1CCC2 (stereo not shown) [ICI 118551]
reduction of the number of I-CYP binding sites [5]: 34%

O=C(O)COc1ccc(OCCNCC(O)COc2ccccc2)cc1 (stereo not shown) [ICI 201651]
lipolysis (glycerol generated relative to basal level, FIG. 4) [3]: Lipolysis is also seen to be induced

CNC[C@H](O)c1ccc(O)c(O)c1 [epinephrine]
lipolysis (glycerol generated relative to basal level, FIG. 4) [3]: lipolysis induced

C=C[C@@]1(C)CC(=O)[C@]2(O)[C@@]3(C)[C@@H](O)CCC(C)(C)[C@@H]3[C@H](O)[C@H](OC(C)=O)[C@@]2(C)O1 [forskolin]
lipolysis (glycerol generated relative to basal level, FIG. 4) [3]: lipolysis induced

CC(C)NCC(O)c1ccc(O)c(O)c1 (stereo not shown) [isoproterenol, isoprenaline]
Accumulation of cAMP, pmol cAMP/mg protein ([1]; PAZ-6 differentiated): 2083 pmol cAMP/mg protein
Accumulation of cAMP, pmol cAMP/mg protein ([1]; PAZ-6 not differentiated): 4344 pmol cAMP/mg protein

NC[C@H](O)c1ccc(O)c(O)c1 [norepinephrine]
lipolysis (glycerol generated relative to basal level, FIG. 4) [3]: lipolysis induced

CCc1ccc(CCOc2ccc(CC3SC(=O)NC3=O)cc2)nc1 (stereo not shown) [pioglitazone]
differentiation into mature adipocytes (PAZ-6 preadipocytes): significantly increased

leptin: leptin (Ob protein), product of the Ob gene
appetite and obesity (Ob mice): reduces appetite and hence obesity
